# Reference: US4339426A, “Bleomycin analog” (Regents of the University of California, priority 1980, dated 1982)
# Assays:
# VX2 adenocarcinomas = experiment: Tumor localization scans in rabbits bearing VX2 adenocarcinomas; format: in vivo, white rabbits; conditions: for concentration of radioactivity in kidneys and bladder: two hours after injection
# Protocol: Solutions of the indium-111 chelates of BLEDTA (A) or BLEDTA (B) were injected into the ear veins of white rabbits bearing type VX2 adenocarcinomas implanted under the right foreleg and the right hind leg. Two hours after injection, and again 18 to 24 hours after injection, the rabbits were scanned with a gamma camera, which provides a two-dimensionaldisplay of the distribution of radioactivity in the body. Scans were obtained 24 hours after injection of 700 μCi of ^111 In-BLEDTA(A).
# KHJJ tumor = experiment: Organ distribution and tumor uptake of 111In-BLEDTA(B) in BALB/c mice with KHJJ tumor (Table II); format: in vivo
# Protocol: The two bleomycin analogs-BLEDTA(A) and (B)-were rapidly and specifically labelled with ^111 In^3.spsp.+. A small aliquot of a dilute solution (10^-4 M) of BLEDTA(A) and (B) respectively in 0.1 M citrate (pH 2.8) was added to a container of dry ^111 InCl3, and incubated for 5 minutes at room temperature. The solutions were then diluted with normal saline solution for injection.
# Following the injection of ^111 In-BLEDTA(B) into the tail veins of specially prepared BALB/c mice, the organ distribution and tumor uptake of radioactivity were determined. A tumor line, "KHJJ", derived from a primary mammary carcinoma arising in a mouse and maintained for over 100 transplant generations was used for the assay. Transplantation was by subcutaneous implantation of tumor fragments about 1 mm in diameter into the flank. The studies were carried out after 14 days of growth, when the tumor had reached a size of about 1 cm^3. On histological examination,the tumor has a "carcinoma-like" pattern with a predominance of islands of round or polygonal malignant cells with little stroma and a generally undifferentiated appearance. After transplantation, the tumor takes in almost all animals and grows without metastasizing or killing the mice within 14 days.
# […] After 18 hours, each mouse was anesthetized with ether, and blood was collected from the jugular vein into two preweighed capillary tubes. The mouse then was killed instantly by cervical dislocation and the major organs excised. Samples of muscle, skin, bone (left femur plus marrow), tail, and tumor also were taken. All tissue samples were weighed immediately after excision and counted in a well-type scintillation counter.
# [1] = 24 hours after injection of 700 μCi
# [2] = Table II, BLEDTA B 18 hours after tail vein injection
structure (smiles),measurement,setting,value
Cc1c(N)nc(C(CC(N)=O)NCC(N)C(N)=O)nc1C(=O)NC(C(=O)NC(C)C(O)C(C)C(=O)NC(C(=O)NCCc1nc(-c2nc(C(=O)NCCC[S+](C)CC(=O)Nc3ccc(C(CN(CC(=O)O)CC(=O)O)N(CC(=O)O)CC(=O)O)cc3)cs2)cs1)C(C)O)C(OC1OC(CO)C(O)C(O)C1OC1OC(CO)C(O)C(OC(N)=O)C1O)c1cnc[nH]1 (stereo not drawn) [BLEDTA(A)],visualization of small tumor 1 cm in diameter under right foreleg,VX2 adenocarcinomas; [1],clearly visualized
same,visualization of tumor 2 to 3 cm in diameter under right hind leg,VX2 adenocarcinomas; [1],strikingly evident
same,concentration of radioactivity in kidneys and bladder,VX2 adenocarcinomas,high concentrations of radioactivity in the kidneys and bladder
Cc1c(N)nc(C(CC(N)=O)NCC(N)C(N)=O)nc1C(=O)NC(C(=O)NC(C)C(O)C(C)C(=O)NC(C(=O)NCCc1nc(-c2nc(C(=O)NCCCSCC(=O)Nc3ccc(C(CN(CC(=O)O)CC(=O)O)N(CC(=O)O)CC(=O)O)cc3)cs2)cs1)C(C)O)C(OC1OC(CO)C(O)C(O)C1OC1OC(CO)C(O)C(OC(N)=O)C1O)c1cnc[nH]1 (stereo not drawn) [BLEDTA(B)],concentration of radioactivity in kidneys and bladder,VX2 adenocarcinomas,high concentrations of radioactivity in the kidneys and bladder
same,uptake of radioactivity in liver and bone,KHJJ tumor; 18 hours,quite low
same,Distribution and uptake: Blood,KHJJ tumor; [2],.205 ± .066 % of injected radioactivity pe
same,Distribution and uptake: Bone,KHJJ tumor; [2],.188 ± .080 % of injected radioactivity pe
same,Distribution and uptake: Kidneys,KHJJ tumor; [2],1.023 ± .333 % of injected radioactivity pe
same,Distribution and uptake: Liver,KHJJ tumor; [2],.263 ± .068 % of injected radioactivity pe
same,Distribution and uptake: Lungs,KHJJ tumor; [2],.254 ± .067 % of injected radioactivity pe
same,Distribution and uptake: Muscle,KHJJ tumor; [2],.063 ± .015 % of injected radioactivity pe
same,Distribution and uptake: Skin,KHJJ tumor; [2],.166 ± .052 % of injected radioactivity pe
same,Distribution and uptake: Spleen,KHJJ tumor; [2],.327 ± .088 % of injected radioactivity pe
same,Distribution and uptake: Tumor,"KHJJ tumor; Table II, KHJJ tumor, BLEDTA B 18 hours after tail vein injection",.393 ± .015 % of injected radioactivity pe
same,tumor/organ radioactivity concentration ratios,KHJJ tumor; all organs examined except the kidneys,Favorable
